Test results: patent US20240300932A1, “N-PHENYLIMINE DERIVATIVE AND PREPARATION METHOD AND USE THEREOF” (Guizhou University, priority 2023, published 2024)

What was measured:
Test in all cases: Post-emergence herbicidal activity test (stem and leaf spray, pot culture)
Format in all cases: in vivo
Conditions in all cases: 3 weeks after spraying
Amaranthus retroflexus = tested on: Amaranthus retroflexus
Procedure, shortened: (§1)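 Activity is given as a 0–5 grade of fresh weight growth control, scored three weeks after a single stem-and-leaf spray. Weeds in farmland loam were treated at the 2- to 3-leaf stage at 10, 5 and 2.5 g/mu, with methyl oleate added as synergist.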

Portulaca oleracea = tested on: Portulaca oleracea
Procedure, shortened: as §1

Echinochloa crusgalli = tested on: Echinochloa crusgalli
Procedure, shortened: as §1

Setaria viridis = tested on: Setaria viridis
Procedure, shortened: as §1

Abutilon theophrasti = tested on: Abutilon theophrasti
Procedure, shortened: as §1

Trifoliumre pensL. = tested on: Trifoliumre pensL.
Procedure, shortened: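 Rates of 10, 5 and 2.5 g/mu were applied in a single spray-tower treatment to 2–3-leaf plants, thinned to 10 per pot. Formulation: acetone solution, Tween 80, 1.5 L/ha methyl oleate synergist. Weed response assessed after 3 further greenhouse weeks; mean of three experiments.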

| SMILES | Post-emergence herbicidal activity, A. retroflexus (grade) (Amaranthus retroflexus; dosage 2.5 g/mu) | Post-emergence herbicidal activity, A. retroflexus (grade) (Amaranthus retroflexus; dosage 5 g/mu) | Post-emergence herbicidal activity, A. retroflexus (grade) (Amaranthus retroflexus; dosage 10 g/mu) | Post-emergence herbicidal activity, P. oleracea (grade) (Portulaca oleracea; dosage 2.5 g/mu) | Post-emergence herbicidal activity, P. oleracea (grade) (Portulaca oleracea; dosage 5 g/mu) | Post-emergence herbicidal activity, P. oleracea (grade) (Portulaca oleracea; dosage 10 g/mu) | Post-emergence herbicidal activity, E. crusgalli (grade) (Echinochloa crusgalli; dosage 2.5 g/mu) | Post-emergence herbicidal activity, E. crusgalli (grade) (Echinochloa crusgalli; dosage 5 g/mu) | Post-emergence herbicidal activity, E. crusgalli (grade) (Echinochloa crusgalli; dosage 10 g/mu) | Post-emergence herbicidal activity, S. viridis (grade) (Setaria viridis; dosage 2.5 g/mu) | Post-emergence herbicidal activity, S. viridis (grade) (Setaria viridis; dosage 5 g/mu) | Post-emergence herbicidal activity, S. viridis (grade) (Setaria viridis; dosage 10 g/mu) | Post-emergence herbicidal activity, A. theophrasti (grade) (Abutilon theophrasti; dosage 2.5 g/mu) | Post-emergence herbicidal activity, A. theophrasti (grade) (Abutilon theophrasti; dosage 5 g/mu) | Post-emergence herbicidal activity, A. theophrasti (grade) (Abutilon theophrasti; dosage 10 g/mu) | Post-emergence herbicidal activity, Trifoliumre pensL. (grade) (Trifoliumre pensL.; dosage 2.5 g/mu) | Post-emergence herbicidal activity, Trifoliumre pensL. (grade) (Trifoliumre pensL.; dosage 5 g/mu) | Post-emergence herbicidal activity, Trifoliumre pensL. (grade) (Trifoliumre pensL.; dosage 10 g/mu) |
| --- | --- | --- | --- | --- | --- | --- | --- | --- | --- | --- | --- | --- | --- | --- | --- | --- | --- | --- |
| O=C1C2=C(CCCC2)C(=O)N1c1cc(OCc2nnc(-c3ccc([N+](=O)[O-])cc3F)o2)c(Cl)cc1F [Compound B20] | 4 (Grade 4: the growth control rate is greater than or equal to 60% and less than 85%) | 5 (Grade 5: the growth control rate is greater than or equal to 85%) | 5 (Grade 5: the growth control rate is greater than or equal to 85%) | 5 (Grade 5: the growth control rate is greater than or equal to 85%) | 5 (Grade 5: the growth control rate is greater than or equal to 85%) | 5 (Grade 5: the growth control rate is greater than or equal to 85%) | 1 (Grade 1: the growth control rate is greater than or equal to 5% and less than 20%) | 2 (Grade 2: the growth control rate is greater than or equal to 20% and less than 40%) | 3 (Grade 3: the growth control rate is greater than or equal to 40% and less than 60%) | 2 (Grade 2: the growth control rate is greater than or equal to 20% and less than 40%) | 3 (Grade 3: the growth control rate is greater than or equal to 40% and less than 60%) | 4 (Grade 4: the growth control rate is greater than or equal to 60% and less than 85%) | 5 (Grade 5: the growth control rate is greater than or equal to 85%) | 5 (Grade 5: the growth control rate is greater than or equal to 85%) | 5 (Grade 5: the growth control rate is greater than or equal to 85%) | 4 (Grade 4: the growth control rate is greater than or equal to 60% and less than 85%) | 5 (Grade 5: the growth control rate is greater than or equal to 85%) | 5 (Grade 5: the growth control rate is greater than or equal to 85%) |
| COc1ccccc1C(=O)COc1cc(N2C(=O)C3=C(CCCC3)C2=O)c(F)cc1Cl [Compound C6, 2-(4-chloro-2-fluoro-5-(2-oxo-2-(2-methoxyphenyl)ethoxy)phenyl)-4,5,6,7-tetrahydro-1H-isoindole-1,3(2H)-dione] | 5 (Grade 5: the growth control rate is greater than or equal to 85%) | 5 (Grade 5: the growth control rate is greater than or equal to 85%) | 5 (Grade 5: the growth control rate is greater than or equal to 85%) | 5 (Grade 5: the growth control rate is greater than or equal to 85%) | 5 (Grade 5: the growth control rate is greater than or equal to 85%) | 5 (Grade 5: the growth control rate is greater than or equal to 85%) | 1 (Grade 1: the growth control rate is greater than or equal to 5% and less than 20%) | 2 (Grade 2: the growth control rate is greater than or equal to 20% and less than 40%) | 3 (Grade 3: the growth control rate is greater than or equal to 40% and less than 60%) | 2 (Grade 2: the growth control rate is greater than or equal to 20% and less than 40%) | 3 (Grade 3: the growth control rate is greater than or equal to 40% and less than 60%) | 4 (Grade 4: the growth control rate is greater than or equal to 60% and less than 85%) | 5 (Grade 5: the growth control rate is greater than or equal to 85%) | 5 (Grade 5: the growth control rate is greater than or equal to 85%) | 5 (Grade 5: the growth control rate is greater than or equal to 85%) | 5 (Grade 5: the growth control rate is greater than or equal to 85%) | 5 (Grade 5: the growth control rate is greater than or equal to 85%) | 5 (Grade 5: the growth control rate is greater than or equal to 85%) |
| O=C(COc1cc(N2C(=O)C3=C(CCCC3)C2=O)c(F)cc1Cl)c1cccc(F)c1 [Compound C7, 2-(4-chloro-2-fluoro-5-(2-oxo-2-(3-fluorophenyl)ethoxy)phenyl)-4,5,6,7-tetrahydro-1H-isoindole-1,3(2H)-dione] | 5 (Grade 5: the growth control rate is greater than or equal to 85%) | 5 (Grade 5: the growth control rate is greater than or equal to 85%) | 5 (Grade 5: the growth control rate is greater than or equal to 85%) | 5 (Grade 5: the growth control rate is greater than or equal to 85%) | 5 (Grade 5: the growth control rate is greater than or equal to 85%) | 5 (Grade 5: the growth control rate is greater than or equal to 85%) | 1 (Grade 1: the growth control rate is greater than or equal to 5% and less than 20%) | 2 (Grade 2: the growth control rate is greater than or equal to 20% and less than 40%) | 3 (Grade 3: the growth control rate is greater than or equal to 40% and less than 60%) | 2 (Grade 2: the growth control rate is greater than or equal to 20% and less than 40%) | 3 (Grade 3: the growth control rate is greater than or equal to 40% and less than 60%) | 4 (Grade 4: the growth control rate is greater than or equal to 60% and less than 85%) | 5 (Grade 5: the growth control rate is greater than or equal to 85%) | 5 (Grade 5: the growth control rate is greater than or equal to 85%) | 5 (Grade 5: the growth control rate is greater than or equal to 85%) | 5 (Grade 5: the growth control rate is greater than or equal to 85%) | 5 (Grade 5: the growth control rate is greater than or equal to 85%) | 5 (Grade 5: the growth control rate is greater than or equal to 85%) |
| O=C(CCl)Nc1cc(N2C(=O)C3=C(CCCC3)C2=O)c(F)cc1Cl [Compound D2, 2-chloro-N-(2-chloro-5-(1,3-dioxo-1,3,4,5,6,7-hexahydro-2H-isoindole-2-yl)-4-fluorophenyl)acetamide] |  |  | 5 (Grade 5: the growth control rate is greater than or equal to 85%) |  |  | 5 (Grade 5: the growth control rate is greater than or equal to 85%) |  |  | 3 (Grade 3: the growth control rate is greater than or equal to 40% and less than 60%) |  |  | 3 (Grade 3: the growth control rate is greater than or equal to 40% and less than 60%) |  |  | 5 (Grade 5: the growth control rate is greater than or equal to 85%) |  |  | 5 (Grade 5: the growth control rate is greater than or equal to 85%) |
| CC(Br)C(=O)Nc1cc(N2C(=O)C3=C(CCCC3)C2=O)c(F)cc1Cl (stereo not drawn) [Compound D3, 2-bromo-N-(2-chloro-5-(1,3-dioxo-1,3,4,5,6,7-hexahydro-2H-isoindol-2-yl)-4-fluorophenyl)propionamide] |  |  | 5 (Grade 5: the growth control rate is greater than or equal to 85%) |  |  | 5 (Grade 5: the growth control rate is greater than or equal to 85%) |  |  | 3 (Grade 3: the growth control rate is greater than or equal to 40% and less than 60%) |  |  | 3 (Grade 3: the growth control rate is greater than or equal to 40% and less than 60%) |  |  | 5 (Grade 5: the growth control rate is greater than or equal to 85%) |  |  | 5 (Grade 5: the growth control rate is greater than or equal to 85%) |
| CC(C)(CCl)C(=O)Nc1cc(N2C(=O)C3=C(CCCC3)C2=O)c(F)cc1Cl [Compound D4, 3-chloro-N-(2-chloro-5-(1,3-dioxo-1,3,4,5,6,7-hexahydro-2H-isoindole-2-yl)-4-fluorophenyl)-2,2-dimethylpropionamide] |  |  | 5 (Grade 5: the growth control rate is greater than or equal to 85%) |  |  | 5 (Grade 5: the growth control rate is greater than or equal to 85%) |  |  | 3 (Grade 3: the growth control rate is greater than or equal to 40% and less than 60%) |  |  | 3 (Grade 3: the growth control rate is greater than or equal to 40% and less than 60%) |  |  | 5 (Grade 5: the growth control rate is greater than or equal to 85%) |  |  | 5 (Grade 5: the growth control rate is greater than or equal to 85%) |
